# Data as given in patent US10564168B2, “Method for treating male infertility based on NOX5 protein levels in sperm” (priority 2013, dated 2020).
# Tests used:
# [1] = system: HV1 proton channels in K562 and K562/NOX5 cells; assay: Perforated-patch clamp recording of proton currents; assay type: cell-based, human
# Description: Micropipettes were pulled in several stages using a Flaming-Brown automatic pipette puller (Sutter Instruments, San Rafael, Calif.) from 7052 glass (Garner Glass Co., Claremont, Calif., USA), coated with Sylgard 184 (Dow Corning Corp., Midland, Mich.), heat polished to a tip resistance between 2 and 10 MΩ. Electrical contact with the pipette solution was achieved using a chloride silver wire. The reference electrode was made from an Ag—AgCl wire connected to the bath through an agar bridge made with Ringer solution (160 mM NaCl, 4.5 mM KCl, 2 mM CaCl2, 1 mM MgCl2, 5 mM Hepes adjusted to pH 7.4). Current signal from the Axopatch 200B (Axon Instruments, Foster City, Calif.) was recorded on PC through a Lab View SCB-68 (National Instruments, Austin, Tex.). Further data analysis was made with Origin 7.5. Seals were formed in Ringer solution in the bath, and the potential was zeroed when the pipette was in contact with the cell. Most measurements were done between 21 and 25° C.
# K562 cells were transferred on chips or pipette into the recording chamber. To leave internal signaling pathways undisturbed, the perforated patch configuration was used. Low access resistance was usually reached after 5-10 minutes. The perforated patch recording bath and pipette solution contained 50 mM NH^4+ in the form of (NH4)2SO4, 2 mM MgCl2, 5 mM Bes or Pipes buffer, and 1 mM EGTA adjusted to pH 7.0 with TMAOH. […]
# human spermatozoa [2] = assay: Superoxide assay, luminol-based Diogenes chemiluminescence, whole spermatozoa; assay type: cell-based; details: for effect on ionomycin-induced superoxide chemiluminescence signal: 1 μM ionomycin; for effect on ionomycin-induced superoxide chemiluminescence signal / effect on H2O2-induced superoxide chemiluminescence signal: SOD 400 U/ml, DPI 10 μM, BAPTA 100 μM; for effect on H2O2-induced superoxide chemiluminescence signal: 100 μM H2O2, GKT136901 0.5 μM
# Description: (§1) Human semen samples were obtained from patient donors as a part of their clinical evaluation for fertility and reproductive health status. Portions of the samples not required for clinical analyses were de-identified and made available for the research protocols described. Under these conditions, the Institutional Review Board determined that the study is exempt from requirements for protocol approval and informed consent. Semen was collected by masturbation into sterile plastic containers and allowed to liquefy for at least 30 min before being processed. The samples were centrifuged (500 g, 15 min) to separate the seminal plasma from spermatozoa, and the pellet washed twice in phosphate-buffered normal saline pH 7 with 10 mM glucose (PBS-G). The spermatozoa were then counted in a hemocytometer chamber, resuspended in PBS-G at 10^9/ml, and used for superoxide assays. Sperm samples containing leukocytes detected by microscopic examination were excluded from the study. For selected experiments, motile spermatozoa were collected using the swim-up procedure (Vijayakumar et al. (1986) Arch. Androl. 17, 223-230; Parrish and Foote (1987) J. Androl. 8, 259-266). Briefly, the spermatozoa were sedimented by centrifugation (500 g, 15 min) and the tube was then incubated upright for 60 min at 37° C. Motile spermatozoa that progressed from the pellet into the supernatant (swim-up fraction) were collected by aspiration and counted.
# Superoxide generation was measured using a luminol-based chemiluminescence assay (Diogenes reagent, National Diagnostics, Atlanta, Ga.). […] Spermatozoa were suspended at 10^9/ml in PBS-G. A 100 μl aliquot of the Diogenes reagent was mixed with 2×10^7 spermatozoa and incubated at 37° C. for 2-4 minutes. Superoxide generation was measured at baseline and after stimulation with ionomycin (1 μM), phorbol myristate acetate (PMA, 1 μg/ml), or H2O2 (100 μM and other concentrations as indicated). Chemiluminescence was measured every 30-60 sec for up to 10-15 min using a Clarity™ BioTek luminometer and an integration time of 5 sec.
# Spermatozoa were pre-incubated for 5 min prior to the superoxide assay with 400 U/ml superoxide dismutase (SOD), 10 μM diphenylene iodonium (DPI), or 100 μM 1,2-Bis (2-aminophenoxy) ethane-N,N,N′,N′-tetraacetic acid (BAPTA). […] In some experiments, cells were pre-exposed to the NOX inhibitor 2-(2-chlorophenyl)-4-methyl-5-(pyridin-2-ylmethyl)-1H-pyrazolo[4,3-c]pyridine-3,6(2H,5H)-dione (GKT136901, 0.5 μM and other concentrations as indicated) for 10 min before exposure to either H2O2 or PMA.
# human spermatozoa [3] = assay: Swim-up procedure, sperm motility; assay type: cell-based; details: GKT136901 0.5 μM or DPI 10 μM; 100 μM H2O2
# Description: as §1
# NOX1 = target: T1, NOX1 (Homo sapiens, UniProt Q9Y5S8); details: cited from earlier work
# T1 sequence (Q9Y5S8 1-564): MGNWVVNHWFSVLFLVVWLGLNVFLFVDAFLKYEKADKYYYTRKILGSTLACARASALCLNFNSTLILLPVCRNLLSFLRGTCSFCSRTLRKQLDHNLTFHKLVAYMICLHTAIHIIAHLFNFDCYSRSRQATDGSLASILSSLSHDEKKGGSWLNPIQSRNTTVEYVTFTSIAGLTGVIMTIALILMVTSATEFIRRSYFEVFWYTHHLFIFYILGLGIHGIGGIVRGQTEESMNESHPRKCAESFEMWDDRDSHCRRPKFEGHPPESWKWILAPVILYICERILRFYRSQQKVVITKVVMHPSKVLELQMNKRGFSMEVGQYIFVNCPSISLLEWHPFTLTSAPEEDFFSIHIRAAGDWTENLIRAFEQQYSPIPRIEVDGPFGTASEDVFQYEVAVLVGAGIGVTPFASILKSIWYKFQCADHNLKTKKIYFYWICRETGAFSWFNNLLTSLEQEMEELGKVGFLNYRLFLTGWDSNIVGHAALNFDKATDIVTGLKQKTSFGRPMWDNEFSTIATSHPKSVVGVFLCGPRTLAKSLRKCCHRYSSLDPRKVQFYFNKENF
# T1 sequence (P13498 1-195 partner): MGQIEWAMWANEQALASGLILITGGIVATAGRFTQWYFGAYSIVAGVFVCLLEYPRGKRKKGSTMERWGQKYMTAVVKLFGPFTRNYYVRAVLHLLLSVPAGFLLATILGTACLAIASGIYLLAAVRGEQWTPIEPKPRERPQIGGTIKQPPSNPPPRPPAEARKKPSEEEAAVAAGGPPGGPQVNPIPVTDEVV
# NOX5 = target: T2, NOX5 (Homo sapiens, UniProt Q96PH1); details: same conditions as Laleu et al.; GenKyoTex, personal communication; read-out: inhibitory constant for NOX5; cited from earlier work
# T2 sequence (Q96PH1 1-765): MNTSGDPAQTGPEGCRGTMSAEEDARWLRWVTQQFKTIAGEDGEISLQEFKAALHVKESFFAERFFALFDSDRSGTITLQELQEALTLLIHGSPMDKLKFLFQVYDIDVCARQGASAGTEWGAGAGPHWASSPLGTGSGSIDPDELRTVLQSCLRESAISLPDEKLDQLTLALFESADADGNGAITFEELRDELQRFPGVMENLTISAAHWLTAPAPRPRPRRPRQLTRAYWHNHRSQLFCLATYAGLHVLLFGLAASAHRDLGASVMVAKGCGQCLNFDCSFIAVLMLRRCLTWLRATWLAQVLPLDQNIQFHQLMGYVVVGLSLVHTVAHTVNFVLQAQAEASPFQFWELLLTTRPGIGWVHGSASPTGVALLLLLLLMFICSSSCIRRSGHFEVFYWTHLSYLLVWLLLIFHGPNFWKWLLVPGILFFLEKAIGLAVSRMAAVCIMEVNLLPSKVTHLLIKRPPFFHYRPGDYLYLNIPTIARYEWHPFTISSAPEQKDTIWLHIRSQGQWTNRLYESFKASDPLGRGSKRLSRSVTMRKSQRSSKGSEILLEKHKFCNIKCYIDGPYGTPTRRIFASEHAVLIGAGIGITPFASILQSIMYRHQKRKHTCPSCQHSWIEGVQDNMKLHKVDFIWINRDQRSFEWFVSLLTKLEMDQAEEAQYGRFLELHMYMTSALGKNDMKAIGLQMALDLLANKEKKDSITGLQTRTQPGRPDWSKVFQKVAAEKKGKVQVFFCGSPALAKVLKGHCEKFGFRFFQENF
# NOX2 = target: T3, NOX2 (Homo sapiens, UniProt P04839); details: NOX1 and NOX4 versus NOX2; cited from earlier work
# T3 sequence (P04839 2-570 limits assumed): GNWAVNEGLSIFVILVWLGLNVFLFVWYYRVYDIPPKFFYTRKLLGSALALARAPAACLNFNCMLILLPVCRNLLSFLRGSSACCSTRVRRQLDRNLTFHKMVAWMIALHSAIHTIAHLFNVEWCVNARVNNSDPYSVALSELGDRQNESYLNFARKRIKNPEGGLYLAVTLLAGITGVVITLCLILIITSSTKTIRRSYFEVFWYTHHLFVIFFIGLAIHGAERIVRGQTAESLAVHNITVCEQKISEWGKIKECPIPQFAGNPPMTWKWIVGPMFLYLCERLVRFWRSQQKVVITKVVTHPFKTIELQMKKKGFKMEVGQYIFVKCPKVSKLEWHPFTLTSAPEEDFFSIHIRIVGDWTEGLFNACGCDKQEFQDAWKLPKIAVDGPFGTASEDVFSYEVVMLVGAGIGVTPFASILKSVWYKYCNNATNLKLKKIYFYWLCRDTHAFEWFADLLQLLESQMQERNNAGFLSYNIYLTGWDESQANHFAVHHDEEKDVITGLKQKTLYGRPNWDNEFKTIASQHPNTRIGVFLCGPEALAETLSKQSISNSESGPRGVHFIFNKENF
# T3 sequence (P13498 1-195 partner): T1 sequence (P13498 1-195 partner)
smiles,measurement,setting,value
"CN(C)CCCn1cc(C2=C(c3c[nH]c4ccccc34)C(=O)NC2=O)c2ccccc21 [GFX, GF109203X]",effect on PMA response of proton channels,[1]; GFX 3 μM after 60 nM PMA,Most features of the PMA response of proton channels were reversed
"O=C(O)CN(CC(=O)O)c1ccccc1OCCOc1ccccc1N(CC(=O)O)CC(=O)O [BAPTA, 1,2-Bis (2-aminophenoxy) ethane-N,N,N′,N′-tetraacetic acid]",effect on ionomycin-induced superoxide chemiluminescence signal,human spermatozoa [2],blocked
same,effect on H2O2-induced superoxide chemiluminescence signal,human spermatozoa [2],nearly completely abrogated
"c1ccc2c(c1)[I+]c1ccccc1-2 [DPI, diphenylene iodonium]",effect of pre-incubation on the H2O2 effect on motility,human spermatozoa [3],abrogated
same,effect on ionomycin-induced superoxide chemiluminescence signal,human spermatozoa [2],blocked
same,effect on H2O2-induced superoxide chemiluminescence signal,human spermatozoa [2],nearly completely abrogated
"Cc1c2c(=O)n(-c3ccccc3Cl)[nH]c2cc(=O)n1Cc1ccccn1 [GKT136901, 2-(2-chlorophenyl)-4-methyl-5-(pyridin-2-ylmethyl)-1H-pyrazolo[4,3-c]pyridine-3,6(2H,5H)-dione]",Ki,NOX1,0.16 ± 0.01 µM
same,Ki,NOX5,0.45 ± 0.01 µM
same,effect of pre-incubation on the H2O2 effect on motility,human spermatozoa [3],abrogated
same,effect on PMA-stimulated superoxide production,human spermatozoa [2]; 1 μg/ml PMA,inhibited the stimulation of superoxide production by PMA in a concentration-dependent manner
same,effect on H2O2-induced superoxide chemiluminescence signal,human spermatozoa [2],nearly completely abrogated
same,"potency in inhibiting PMA-stimulated superoxide production, sperm cells as compared with neutrophils",human spermatozoa [2]; human spermatozoa versus human neutrophils,~10 fold
same,selectivity over NOX2,NOX2,~9 fold
C[C@H](CCC(=O)O)C[C@H](C)C[C@H](C)C(=O)/C=C(\O)[C@H](C)C[C@H](C)C/C=C/[C@@H](C)[C@@H](O)[C@@H](C)[C@@H](O)C[C@@H]1CC[C@@](C)([C@H]2CC[C@@](C)([C@@H](C)O)O2)O1 [ionomycin],induction of superoxide production by spermatozoa,"human spermatozoa [2]; ionomycin 1 μM, PMA 1 μg/ml or H2O2 100 μM, 10 min",induced vigorous superoxide production
"CCCCCCCCCCCCCC(=O)O[C@@H]1[C@@H](C)[C@@]2(O)[C@@H](C=C(CO)C[C@]3(O)C(=O)C(C)=C[C@@H]23)[C@@H]2C(C)(C)[C@]12OC(C)=O [PMA, phorbol myristate acetate]",response of proton channels to stimulation,[1]; 60 nM PMA,enhanced gating mode
